# “Also recorded” adds a separate entry of the source.
# What was measured:
# [1] = solubility in organic solvents; type: physicochemical; conditions: organic solvents such as methanol, ethanol, dimethylformamide, dimethyl sulfoxide, ethyl acetate
# [2] = system: bacteria; experiment: antibacterial activity (summary statement); type: cell-based; conditions: in words, no data shown
# [3] = system: Verticillium serrae; experiment: agar dilution MIC; type: cell-based; conditions: strain MF3794, yeast nitrogen base agar
# Method: (§1) Minimum inhibiting concentration against representative fungal organisms may be seen in the results of tests carried out by the agar dilution method in which an aqueous suspension of the metabolite was solubilized by adding a small amount of methanol. Further dilutions were made employing water. The diluted samples were added to molten agar to produce final concentrations of 512 μg/ml and lower. The molten agar was yeast nitrogen base agar prepared by adding 1 part of sterile yeast nitrogen base agar to 9 parts 2% Difco agar.
# [4] = system: C. tropicalis; experiment: agar dilution MIC; type: cell-based; conditions: strain MY1012, yeast nitrogen base agar
# Method: as §1
# [5] = system: Aspergillus fumigatus; experiment: agar dilution MIC; type: cell-based; conditions: strain MF4839, yeast nitrogen base agar
# Method: as §1
# [6] = system: Scopulariopsi communis; experiment: agar dilution MIC; type: cell-based; conditions: strain MF3769, yeast nitrogen base agar
# Method: as §1
# [7] = system: A. flavus; experiment: agar dilution MIC; type: cell-based; conditions: strain MF383, yeast nitrogen base agar
# Method: as §1
# [8] = system: Aspergillus niger; experiment: agar dilution MIC; type: cell-based
# Method: as §1
# [9] = system: Cercospora beticola; experiment: agar dilution MIC; type: cell-based; conditions: strain MF4608, yeast nitrogen base agar
# Method: as §1
# [10] = system: Cr. laurentii; experiment: agar dilution MIC; type: cell-based
# Method: as §1
# [11] = system: Cr. albidus; experiment: agar dilution MIC; type: cell-based; conditions: strain MY1070, yeast nitrogen base agar
# Method: as §1
# [12] = system: Debaryomyces guilliermondi; experiment: agar dilution MIC; type: cell-based; conditions: strain MY321, yeast nitrogen base agar
# Method: as §1
# [13] = system: Trichoderma sp.; experiment: agar dilution MIC; type: cell-based; conditions: strain MF4064, yeast nitrogen base agar
# Method: as §1
# [14] = system: Candida pseudotropicalis; experiment: agar dilution MIC; type: cell-based; conditions: strain MY1100, yeast nitrogen base agar
# Method: as §1
# [15] = system: Ustilago maydis; experiment: agar dilution MIC; type: cell-based; conditions: strain MF1996, yeast nitrogen base agar
# Method: as §1
# [16] = system: Fusarium oxysporium; experiment: agar dilution MIC; type: cell-based; conditions: strain MF4014, yeast nitrogen base agar
# Method: as §1
# [17] = system: Cryptococcus neoformans; experiment: agar dilution MIC; type: cell-based
# Method: as §1
# [18] = system: C. rugosa; experiment: agar dilution MIC; type: cell-based; conditions: strain MY1022, yeast nitrogen base agar
# Method: as §1
# [19] = system: Ceratocystis ulmi; experiment: agar dilution MIC; type: cell-based; conditions: strain MF4042, yeast nitrogen base agar
# Method: as §1
# [20] = system: Cephalosporium sp.; experiment: agar dilution MIC; type: cell-based; conditions: strain MF4641, yeast nitrogen base agar
# Method: as §1
# [21] = system: Trichoderma lignorum; experiment: agar dilution MIC; type: cell-based; conditions: strain MF3560, yeast nitrogen base agar
# Method: as §1
# [22] = system: Penicillium sp.; experiment: agar dilution MIC; type: cell-based
# Method: as §1
# [23] = system: filamentous fungi and yeast organisms; experiment: antifungal activity (summary statement); type: cell-based; conditions: in words
# Method: as §1
structure (smiles),measurement,setting,value
CCCCCCC(C)CC(C)=CC(C=C(C)C=CC(O)C(C)(C)c1cc(O)c(C2OC(CO)CC(O)C2O)c(=O)o1)CO (centres unmarked) [Compound I],solubility,[1],soluble
same,antibacterial properties,[2],antibacterial properties
same,MIC,[3],25 µg/mL
same,MIC,[4],25 µg/mL
same,MIC,[5],64 µg/mL
same,MIC,[6],6.2 µg/mL
same,MIC,[7],64 µg/mL
same,MIC,"[8]; strain MF11, yeast nitrogen base agar",1.6 µg/mL
same,MIC,"[8]; strain MF442, yeast nitrogen base agar",3.1 µg/mL
same,MIC,[9],4 µg/mL
same,MIC,"[10]; strain MY1073, yeast nitrogen base agar",6.2 µg/mL
same,MIC,"[10]; strain MY1074, yeast nitrogen base agar",8 µg/mL
same,MIC,"[10]; strain MY1077, yeast nitrogen base agar",12.5 µg/mL
same,MIC,[11],8 µg/mL
same,MIC,[12],6.2 µg/mL
same,MIC,[13],1.6 µg/mL
same,MIC,[14],25 µg/mL
same,MIC,[15],8 µg/mL
same,MIC,[16],25 µg/mL
same,MIC,"[17]; strain MY1046, yeast nitrogen base agar",8 µg/mL
same,MIC,"[17]; strain MY1050, yeast nitrogen base agar",32 µg/mL
same,MIC,"[17]; strain MY1051, yeast nitrogen base agar",128 µg/mL
same,MIC,[18],25 µg/mL
same,MIC,[19],25 µg/mL
same,MIC,[20],12.5 µg/mL
same,MIC,[21],6.2 µg/mL
same,MIC,"[22]; strain MF5014, yeast nitrogen base agar",3.1 µg/mL
same,MIC,"[22]; strain MF5020, yeast nitrogen base agar",1.6 µg/mL
same,antifungal activity,[23],active against a moderately broad spectrum of filamentous fungi and yeast organisms; also recorded: excellent antifungal properties against many filamentous and many yeast organisms
